Measurements from the supplement of paper PMC10307832.

Tests used:
Test in all cases: relative viability (nuclei count vs DMSO), 5 days (fraction); higher = more cells survive
[1] = compound: COC1=CC=C(C=C1)CN2C=CC3=C2C=C(C=C3)C(=O)NO + CC(C)C[C@H](NC(=O)[C@H](Cc1ccccc1)NC(=O)c1cnccn1)B(O)O [Bortezomib] (partner 0.002 µM)
Outline: (§1)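 Nuclei were stained with Hoechst during a one-step fixation (final 0.05% Triton X-100, 1% formaldehyde, 1 ug/ml Hoechst) carried out 5 days after dosing, then counted on 4× images. The cells, lung cancer lines in 1536-well plates, had been dosed by pin tool the day after seeding with one drug alone or a fixed anchor-drug dose plus five library-drug doses (not always all listed) in √10 steps. Relative viability is the nuclei count in treated wells divided by that in vehicle wells, and each value is the median of duplicate plates.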

[2] = compound: COC1=CC=C(C=C1)CN2C=CC3=C2C=C(C=C3)C(=O)NO + C[C@]1(O)C[C@@H](c2nc(-c3ccc4ccc(-c5ccccc5)nc4c3)c3c(N)nccn32)C1 [Linsitinib] (partner 1 µM)
Outline: as §1

Veliparib + Palbociclib = compound: C[C@]1(c2nc3c(C(N)=O)cccc3[nH]2)CCCN1 [Veliparib] + CC(=O)c1c(C)c2cnc(Nc3ccc(N4CCNCC4)cn3)nc2n(C2CCCC2)c1=O [Palbociclib] (partner 0.5 µM)
Outline: as §1

Veliparib + Dasatinib = compound: C[C@]1(c2nc3c(C(N)=O)cccc3[nH]2)CCCN1 [Veliparib] + Cc1nc(Nc2ncc(C(=O)Nc3c(C)cccc3Cl)s2)cc(N2CCN(CCO)CC2)n1 [Dasatinib] (partner 0.075 µM)
Outline: as §1

Cell Line	relative viability ([1]; first compound 0.08 µM)	relative viability ([1]; first compound 0.253 µM)	relative viability ([1]; first compound 0.8 µM)	relative viability ([1]; first compound 2.53 µM)	relative viability ([1]; first compound 8 µM)	relative viability ([2]; first compound 0.08 µM)	relative viability ([2]; first compound 0.253 µM)	relative viability ([2]; first compound 0.8 µM)	relative viability ([2]; first compound 2.53 µM)	relative viability ([2]; first compound 8 µM)	relative viability (Veliparib + Palbociclib; first compound 0.02 µM)	relative viability (Veliparib + Palbociclib; first compound 0.06325 µM)	relative viability (Veliparib + Palbociclib; first compound 0.2 µM)	relative viability (Veliparib + Palbociclib; first compound 0.6325 µM)	relative viability (Veliparib + Palbociclib; first compound 2 µM)	relative viability (Veliparib + Dasatinib; first compound 0.02 µM)	relative viability (Veliparib + Dasatinib; first compound 0.06325 µM)	relative viability (Veliparib + Dasatinib; first compound 0.2 µM)	relative viability (Veliparib + Dasatinib; first compound 0.6325 µM)	relative viability (Veliparib + Dasatinib; first compound 2 µM)
201T	1.09	1.1	1.1	1.14	1.06	1.04	1.01	1.13	1.06	1.03	0.352	0.353	0.364	0.356	0.373	0.529	0.572	0.537	0.614	0.52
A549							0.678	0.595	0.697	0.558										
A-427		1.01	1.04	0.994	0.931		1.08	1.11	1.16	1.1	0.507	0.51	0.529	0.5	0.593		0.714	0.699	0.657	0.539
ABC-1		0.274	0.296	0.325	0.318		0.924	0.789	0.732	0.885			0.863	0.694	0.405		0.355	0.604	0.591	0.367
BEN	0.675	0.671	0.906	0.754	0.656	0.87	0.875	0.904	0.869	0.907	0.466	0.491	0.479	0.5	0.465	0.232	0.292	0.377	0.361	0.266
CAL-12T	0.987		1.06	1.06	0.862	0.695	0.917	0.756	0.76	0.786	0.179	0.301	0.402	0.382	0.58	0.287	0.354	0.386	0.308	0.468
COR-L23	0.93	0.996	1.08	1.03	0.922	0.558	1.09	0.817	0.872	0.836	0.27	0.237	0.252	0.25	0.27	0.428	0.434	0.361	0.425	0.471
COR-L 105		0.741	0.654	0.625	0.277		0.945	0.763	0.983	0.765	0.402	0.47	0.4	0.375	0.444	0.355	0.273	0.352	0.331	0.324
Calu-6	1.07	0.979	0.968	0.953	0.871		0.961	0.949	0.906	0.902										
ChaGo-K-1		0.752	0.962	0.942	0.868						0.712	0.951	1.02	0.892	0.944	0.336	0.615	0.566	0.624	0.584
EBC-1	0.574	0.496	0.532	0.54	0.44		0.883	0.941	0.907	0.768										
EKVX	1.03	0.762	1.16	1.08	1.21	0.825	1.07	1.06	1.12	1.03		0.42	0.403	0.373	0.383		0.658	0.66	0.532	0.48
EMC-BAC-2	0.972	1.13	1.18	1.07	0.944	0.686	0.867	0.839	0.814	0.839	0.527	0.487	0.512	0.486	0.544	0.362	0.27	0.333	0.305	0.315
EPLC-272H	0.925	0.953	1.16	0.861	0.855	0.987	1.18	1.14	1.14	1.05		0.355	0.35	0.317	0.302	0.291	0.367	0.323	0.325	0.36
H3255	0.73	0.623	0.733	0.739	0.894	0.853	1.01	0.943	0.859	0.835	0.344	0.309	0.298	0.304	0.358	0.303	0.344	0.253	0.402	0.32
HARA	0.536	1.22	1.15	1.12	1.13	0.126	1.01	1.01	1.07	0.962	0.352	0.174	0.308	0.327	0.265	0.254	0.383	0.294	0.231	0.267
HCC-15	0.854	1.09	1.13	1.02	0.998	0.802	0.877	0.887	0.968	0.915	0.679	0.675	0.782	0.703	0.718		0.524	0.629	0.603	0.582
HCC-44	0.845	0.912	0.897	0.914	0.907	0.568	0.69	0.681	0.705	0.637	1	0.834	0.996	0.964	1.01					
HCC-78	0.474	0.49	0.437	0.543	0.51		0.542	0.537	0.491	0.453	0.459	0.458	0.454	0.456	0.442	0.438	0.337	0.444	0.483	0.257

Cell Line	relative viability ([1]; first compound 0.08 µM)	relative viability ([1]; first compound 0.253 µM)	relative viability ([1]; first compound 0.8 µM)	relative viability ([1]; first compound 2.53 µM)	relative viability ([1]; first compound 8 µM)	relative viability ([2]; first compound 0.08 µM)	relative viability ([2]; first compound 0.253 µM)	relative viability ([2]; first compound 0.8 µM)	relative viability ([2]; first compound 2.53 µM)	relative viability ([2]; first compound 8 µM)	relative viability (Veliparib + Palbociclib; first compound 0.02 µM)	relative viability (Veliparib + Palbociclib; first compound 0.06325 µM)	relative viability (Veliparib + Palbociclib; first compound 0.2 µM)	relative viability (Veliparib + Palbociclib; first compound 0.6325 µM)	relative viability (Veliparib + Palbociclib; first compound 2 µM)	relative viability (Veliparib + Dasatinib; first compound 0.02 µM)	relative viability (Veliparib + Dasatinib; first compound 0.06325 µM)	relative viability (Veliparib + Dasatinib; first compound 0.2 µM)	relative viability (Veliparib + Dasatinib; first compound 0.6325 µM)	relative viability (Veliparib + Dasatinib; first compound 2 µM)
IA-LM	0.857	0.69	0.942	0.769	0.726	0.613	0.587	0.492	0.698	0.663										
LK-2							0.45	0.579	0.515	0.533	0.662	0.608	0.707	0.616	0.779		0.266	0.258	0.325	0.291
NCI-H358							0.903	0.792	0.742	0.851	0.117	0.136	0.153	0.137	0.119	0.0991	0.156	0.169	0.131	0.152
NCI-H522											1.01	0.864	1.18	1.11	1	0.887	0.904	0.963	0.831	0.812
NCI-H596	1.04		0.943	1.07	1.02	0.982	1.08	1.01	0.915	0.992						0.611	0.571	0.641	0.521	0.633
NCI-H1299	0.994	1.06	1.04	1.03	1.03	0.952	0.976	0.994	0.977	0.959										
NCI-H1395						0.773	1.28	1.11	1.08	0.918	0.606	0.58	0.614	0.565	0.554	0.379	0.381	0.46	0.414	0.437
NCI-H1563	0.788	0.916	0.95	0.839	0.69	1.1	1.18	1.26	1.18	1.12						0.462	0.474	0.4	0.491	0.482
NCI-H1623																	0.458	0.598	0.524	0.462
NCI-H1648											0.257			0.232	0.274					
NCI-H1650	0.17	0.174	0.208	0.211	0.195						0.236	0.305	0.28	0.322	0.345		0.319	0.3	0.271	0.223
NCI-H1703	0.322	0.403	0.327	0.32	0.26		0.783	1.09	0.69	1.16										
NCI-H1793						0.934	0.941	1.09	0.976	0.86	0.31	0.292	0.336	0.348	0.331	0.398	0.448	0.408	0.277	0.448
NCI-H1944							1.18	1.38	1.21	1.1	0.302	0.348	0.355	0.324	0.329	0.204	0.196	0.21	0.195	0.219
NCI-H2170											0.43	0.446	0.435	0.386	0.399	0.549	0.629	0.587	0.562	0.592
NCI-H2342											0.482	0.581	0.503	0.522	0.491	0.293	0.297	0.299	0.321	0.288
SK-MES-1						1.03	1.05	1.12	1.14	1.01	0.334	0.278	0.329	0.307	0.297	0.39	0.34	0.432	0.397	0.484
SW 900												0.516	0.557	0.539	0.56			0.538	0.644	0.696
